Paper PMC10712727, “Safety, Tolerability, and Pharmacokinetics of Senaparib, a Novel PARP1/2 Inhibitor, in Chinese Patients With Advanced Solid Tumors: A Phase I Trial” (The Oncologist, 2023)

Assay: Plasma pharmacokinetics in continuous dosing period, cycle 1 day 15 steady state (HPLC-MS/MS)
Assay type: in vivo, human
Settings: for Rac, accumulation ratio (mean±SD) / Vss/F (mean±SD): cycle 1 day 15
Procedure: Dose escalation was conducted using a modified Fibonacci 3 + 3 method (Supplementary Fig. […] At a given dose level, each patient received a single dose of senaparib followed by a 7-day washout period. They then entered a continuous dosing period to confirm the safety and PK profile, in which they received senaparib QD from day 1 to day 21 of each 3-week cycle. Progression to the next higher dose required approval from the Data Safety Monitoring Committee (DSMC) upon review of the safety and PK data of the previous dose. A 50-mg twice-daily (BID) dosing group was added (planned enrollment, n = 6 patients) based on a DSMC review of the safety, PK, and efficacy analysis of the completed QD dose groups in the phase I clinical trial of senaparib dose escalation in Australia (NCT03507543), which commenced prior to the start of this trial. Safety was assessed by recording the incidence of dose-limiting toxicities (DLTs), and the incidence, nature, severity (graded per National Cancer Institute Common Terminology Criteria for Adverse Events version 4.03 [NCI CTCAE v4.03][18]), and relatedness of treatment-emergent adverse events (TEAEs). DLTs were predefined toxicities (Supplementary Table S2) recorded over the 7 days following the single-dose administration of senaparib and during the first treatment cycle (day 1-day 21) for each dose group in the dose-escalation period only. […] Senaparib PK parameters were derived from blood samples collected from patients after the single administration, and at regular intervals during the first cycle of the dose-escalation and dose-expansion periods. Plasma concentrations of senaparib were determined using high-performance liquid chromatography-tandem mass spectrometry. […] There was no formal sample size calculation based on statistical hypothesis testing for this study; the planned enrolment was approximately 30-60 patients across the dose-escalation and dose-expansion cohorts. The actual number in the dose-escalation cohort was adjusted based on the number of dose cohorts required for the modified Fibonacci dose-escalation design and the determined MTD. Definitions for all analysis populations (safety, DLT, PK, and efficacy [intent-to-treat, ITT]) are provided in Supplementary Table S2. No statistical tests were performed; patient demographic and baseline characteristics, safety/tolerability, PK parameters, and efficacy were evaluated descriptively. ORR and DCR and their 95% CIs were calculated for each group using the exact probability method. Kaplan-Meier statistics were used to estimate DOR and PFS, and their 95% CIs for each dose group separately. Dose linearity was explored based on the single-dose data of area under the time-concentration curve (AUC) and maximum plasma concentration (Cmax) using the power model (Y = α × dose β) for the dose range 2-80 mg on a log-transformed scale. The following criterion was used to determine whether dose proportionality was met: if the (2-sided) 90% CI for β was wholly contained within the interval (1 + log(0.5)/log(r), 1 + log(2)/log(r)), then dose proportionality was supported. Here, r was defined as the ratio of the highest to lowest dose. All data analyses were carried out using SAS EG7.1 or higher or (for PK parameters) WinNonlin 7.0 or higher.

## O=C(c1cc(Cn2c(=O)[nH]c(=O)c3c(F)cccc32)ccc1F)N1CCN(c2ncccn2)CC1 [Senaparib]
2 mg QD (n/N = 1/1)
  Rac, accumulation ratio (mean±SD): 1.5
  Vss/F (mean±SD): 16.6 L
5 mg QD (n/N = 3/3)
  Rac, accumulation ratio (mean±SD): 1.4±0.4
  Vss/F (mean±SD): 19.8 ± 7.7 L
10 mg QD (n/N = 3/3)
  Rac, accumulation ratio (mean±SD): 1.4±0.2
  Vss/F (mean±SD): 24.9 ± 4.3 L
20 mg QD (n/N = 5/5)
  Rac, accumulation ratio (mean±SD): 1.2±0.2
  Vss/F (mean±SD): 18.1 ± 2.5 L
40 mg QD (n/N = 3/3)
  Rac, accumulation ratio (mean±SD): 1.1±0.1
50 mg BID (n/N = 4/4)
  Rac, accumulation ratio (mean±SD): 1.8±0.4
  Vss/F (mean±SD): 39.9 ± 3.4 L
60 mg QD (n/N = 5/5)
  Rac, accumulation ratio (mean±SD): 1.1±0.0
  Vss/F (mean±SD): 32.1 ± 13.0 L
80 mg QD (n/N = 9/9)
  Rac, accumulation ratio (mean±SD): 1.2±0.1
  Vss/F (mean±SD): 38.8 ± 23.5 L
100 mg QD (n/N = 20/20)
  Rac, accumulation ratio (mean±SD): 1.2±0.1
  Vss/F (mean±SD): 40.1 ± 21.9 L
120 mg QD (n/N = 4/4)
  Rac, accumulation ratio (mean±SD): 1.2±0.2
  Vss/F (mean±SD): 1.3 ± 39.5 L
After BID administration
  Accumulation ratio (Rac): 1.8
After repeated QD administration
  Accumulation ratio (mean Rac): 1.1-1.5
human, in vivo
  AUC from time zero to 24 h post dose: approximately 35 918 h*ng/mL
  AUC from time zero to the last measurable concentration: 33 827 h*ng/mL
human, in vivo, 2 mg
  AUC0-inf, mean±SD: 4361.8 ng·h/mL
  AUC0-t, mean±SD: 2753.5 ng·h/mL
  CLss/F (mean±SD): 0.7 L/h
  Cmax, mean±SD: 203.0 ng/mL
  Tmax, median (range): 2.0 (2.0-2.0) h
  t½, median (range): 16.0 (16.0-16.0) h
human, in vivo, 5 mg
  AUC0-inf, mean±SD: 9655.4±11 022.2 h*ng/mL
  AUC0-t, mean±SD: 6013.7 ± 5649.0 ng·h/mL
  CLss/F (mean±SD): 1.6 ± 1.3 L/h
  Cmax, mean±SD: 470.7 ± 354.0 ng/mL
  Tmax, median (range): 2.0 (2.0-2.0) h
  t½, median (range): 10.3 (6.4-21.4) h
human, in vivo, 10 mg
  AUC0-inf, mean±SD: 10 553.4±2657.5 h*ng/mL
  AUC0-t, mean±SD: 7506.4 ± 892.6 ng·h/mL
  CLss/F (mean±SD): 1.3 ± 0.2 L/h
  Cmax, mean±SD: 598.7 ± 67.9 ng/mL
  Tmax, median (range): 4.0 (2.0-4.0) h
  t½, median (range): 13.2 (9.4-16.8) h
human, in vivo, 20 mg
  AUC0-inf, mean±SD: 22 122.4±18 526.0 h*ng/mL
  AUC0-t, mean±SD: 16 213.5±9863.9 h*ng/mL
  CLss/F (mean±SD): 1.6 ± 0.8 L/h
  Cmax, mean±SD: 1483.2 ± 487.8 ng/mL
  Tmax, median (range): 2.0 (1.8-2.0) h
  t½, median (range): 9.4 (5.5-17.5) h
human, in vivo, 40 mg
  AUC0-inf, mean±SD: 22 437.1±5342.9 h*ng/mL
  AUC0-t, mean±SD: 19 566.5±3285.1 h*ng/mL
  CLss/F (mean±SD): 2.1 ± 0.4 L/h
  Cmax, mean±SD: 2013.3 ± 280.2 ng/mL
  Tmax, median (range): 1.9 (1.8-2.0) h
  t½, median (range): 7.5 (5.5-9.2) h
human, in vivo, 50 mg
  AUC0-inf, mean±SD: 38 418.9±19 776.1 h*ng/mL
  AUC0-t, mean±SD: 17 959.6±5287.0 h*ng/mL
  CLss/F (mean±SD): 2.8 ± 0.8 L/h
  Cmax, mean±SD: 2152.5 ± 354.3 ng/mL
  Tmax, median (range): 2.0 (1.9-3.7) h
  t½, median (range): 9.7 (7.8-15.2) h
human, in vivo, 60 mg
  AUC0-inf, mean±SD: 19 189.5±10 074.3 h*ng/mL
  AUC0-t, mean±SD: 17 777.2±8739.1 h*ng/mL
  CLss/F (mean±SD): 4.6 ± 3.6 L/h
  Cmax, mean±SD: 2056.0 ± 975.0 ng/mL
  Tmax, median (range): 2.0 (1.9-3.9) h
  t½, median (range): 5.8 (3.4-7.7) h
human, in vivo, 80 mg
  AUC0-inf, mean±SD: 48 747.0±33 189.7 h*ng/mL
  AUC0-t, mean±SD: 37 727.0±21 476.1 h*ng/mL
  CLss/F (mean±SD): 2.9 ± 1.8 L/h
  Cmax, mean±SD: 3487.8 ± 1649.2 ng/mL
  Tmax, median (range): 2.0 (1.9-3.8) h
  t½, median (range): 9.7 (5.8-14.4) h
human, in vivo, 100 mg
  AUC0-inf, mean±SD: 40 080.4±16 731.2 h*ng/mL
  AUC0-t, mean±SD: 33 827.1±12 273.6 h*ng/mL
  CLss/F (mean±SD): 3.5 ± 1.8 L/h
  Cmax, mean±SD: 3212.5 ± 765.1 ng/mL
  Tmax, median (range): 1.9 (1.8-4.1) h
  t½, median (range): 7.5 (5.3-16.1) h
human, in vivo, 120 mg
  AUC0-inf, mean±SD: 87 799.1±11 6874.0 h*ng/mL
  AUC0-t, mean±SD: 62 737.2±74517.1 h*ng/mL
  CLss/F (mean±SD): 4.3 ± 3.3 L/h
  Cmax, mean±SD: 5107.5 ± 4893.2 ng/mL
  Tmax, median (range): 2.0 (1.9-2.1) h
  t½, median (range): 8.8 (6.0-15.2) h
